Data from US8236792B2, “Substituted pyrrolidine amides as modulators of the histamine H3 receptor” (Janssen Pharmaceutica NV, priority 2008, dated 2012).

The compounds below were run against T1, cloned human H3 receptors (Homo sapiens, UniProt Q9Y5N1) (assay: H3 Receptor Binding (Human) Method 1). Details: receptor stably expressed in SK-N-MC cells, free base forms, average of results.
T1 construct: expressed in transfected cells
T1 sequence (Q9Y5N1 whole entry): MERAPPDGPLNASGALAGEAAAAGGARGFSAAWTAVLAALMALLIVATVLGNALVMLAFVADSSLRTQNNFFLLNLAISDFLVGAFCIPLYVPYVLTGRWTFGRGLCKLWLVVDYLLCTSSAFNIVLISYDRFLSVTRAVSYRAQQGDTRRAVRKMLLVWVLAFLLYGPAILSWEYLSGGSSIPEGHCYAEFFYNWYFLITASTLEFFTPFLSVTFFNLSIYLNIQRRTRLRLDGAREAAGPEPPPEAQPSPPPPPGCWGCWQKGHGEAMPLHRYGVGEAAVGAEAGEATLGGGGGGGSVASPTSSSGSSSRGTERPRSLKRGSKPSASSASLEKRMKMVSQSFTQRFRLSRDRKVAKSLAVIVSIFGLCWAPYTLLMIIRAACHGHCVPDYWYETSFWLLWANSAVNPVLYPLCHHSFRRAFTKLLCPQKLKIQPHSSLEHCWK

First: CC(C)(C)OC(=O)N1CC(Oc2cccc(F)c2)C[C@H]1C(=O)N1CCCN(C2CCC2)CC1 (mixture of isomers) [Example 41, (2S)-2-(4-Cyclobutyl-[1,4]diazepane-1-carbonyl)-4-(3-fluoro-phenoxy)-pyrrolidine-1-carboxylic acid tert-butyl ester]
Second: CC(C)(C)OC(=O)N1C[C@@H](Oc2ccc(F)cc2)C[C@H]1C(=O)N1CCCN(C2CCC2)CC1 [Example 11, (2S,4S)-2-(4-Cyclobutyl-[1,4]diazepane-1-carbonyl)-4-(4-fluoro-phenoxy)-pyrrolidine-1-carboxylic acid tert-butyl ester]
The Ki of the first is 2.1-fold lower: 0.018 µM for the first, 0.037 µM for the second. The first binds more tightly here.

Going from `CC(C)(C)OC(=O)N1C[C@H](O)C[C@H]1C(=O)N1CCCN(C2CCC2)CC1` [Example 1, (2S,4R)-2-(4-Cyclobutyl-[1,4]diazepane-1-carbonyl)-4-hydroxy-pyrrolidine-1-carboxylic acid tert-butyl Ester] to `CC(C)(C)OC(=O)N1C[C@H](O)C[C@H]1C(=O)N1CCN(C2CCC2)CC1` [Example 2, (2S,4R)-2-(4-Cyclobutyl-piperazine-1-carbonyl)-4-hydroxy-pyrrolidine-1-carboxylic acid tert-butyl Ester], the Ki rises from 0.07 µM to over 10 µM. The first binds more tightly here.

First: CC(C)(C)OC(=O)N1C[C@@H](Oc2ccc(F)cc2)C[C@H]1C(=O)N1CCN(C2CCC2)CC1 [Example 12, (2S,4S)-2-(4-Cyclobutyl-piperazine-1-carbonyl)-4-(4-fluoro-phenoxy)-pyrrolidine-1-carboxylic acid tert-butyl ester]
Second: CC(C)(C)OC(=O)N1C[C@H](Oc2ccc(F)cc2)C[C@H]1C(=O)N1CCCN(C2CCC2)CC1 [Example 15, (2S,4R)-2-(4-Cyclobutyl-[1,4]diazepane-1-carbonyl)-4-(4-fluoro-phenoxy)-pyrrolidine-1-carboxylic acid tert-butyl ester]
The Ki of the first is higher: over 1.5 µM for the first, 0.025 µM for the second.

With `CC(C)(C)OC(=O)N1C[C@@H](Oc2ccc(F)cc2)C[C@@H]1C(=O)N1CCCN(C2CCC2)CC1` [Example 18, (2R,4S)-2-(4-Cyclobutyl-[1,4]diazepane-1-carbonyl)-4-(4-fluoro-phenoxy)-pyrrolidine-1-carboxylic acid tert-butyl ester] the Ki was 0.005 µM.

These compounds were tested against human H3 receptor (Homo sapiens, UniProt Q9Y5N1) (assay: H3 Receptor Binding (Human) Method 2, [125I]-iodoproxyfan competitive radioligand binding). Details: Method 2; SK-N-MC cell membranes; [125I]-iodoproxyfan 1 nM; apparent Ki; free base or hydrochloride salt; average of results; read-out: Human H3 Ki.
human H3 receptor, sequence (Q9Y5N1 whole entry): as above
Parameters: expressed in transfected cells
Procedure: SK-N-MC cells expressing the human H3 receptor were grown to confluence and tissue culture plates, washed with phosphate-buffered saline, and scraped into 50 mL tubes. After centrifugation, the supernatant was aspirated, and the pellets frozen and stored at −80° C. […] The homogenate was centrifuged at 25000×g for 25 min. […] Reactions were stopped by filtration through GF/B filter plates pre-soaked in 0.3% polyethylenimine and subsequently washed with Tris 50 mM, 5 mM EDTA buffer. Plates were dried for 1 h in a 55° C. oven. Scintillation fluid was added and the radioactivity was counted in a Packard TopCount. Non-specific binding to the H3 receptor was defined by radioactivity that was bound in the presence of 100 μM histamine.
Compounds were tested in their free base or hydrochloride salt forms.

In order of rising Ki:
1. O=C(N1CCCN(C2CCC2)CC1)[C@@]1(Cc2ccccc2)CCCN1 [Example 171, (2S)-(2-Benzyl-pyrrolidin-2-yl)-(4-cyclobutyl-[1,4]diazepan-1-yl)-methanone]  0.011 µM
2. O=C([C@H]1C[C@H](Oc2ccc(F)cc2)CN1C1CC1)N1CCCN(C2CCC2)CC1 [Example 142, (2R,4S)-1-Cyclopropyl-2-(4-cyclobutyl-[1,4]diazepane-1-carbonyl)-4-(4-fluoro-phenoxy)-pyrrolidine]  0.013 µM
3. O=C(N1CCCN(C2CCC2)CC1)[C@@]1(Cc2cccc(F)c2)CCCN1 [Example 168, (2S)-2-(4-Cyclobutyl-[1,4]diazepane-1-carbonyl)-2-(3-fluoro-benzyl)-pyrrolidine]  0.044 µM
4. O=C(N1CCCN(C2CCC2)CC1)[C@@]1(Cc2ccc(C(F)(F)F)cc2)CCCN1 [Example 170, (2S)-(4-Cyclobutyl-[1,4]diazepan-1-yl)-[2-(4-trifluoromethyl-benzyl)-pyrrolidin-2-yl]-methanone]  0.201 µM

Same assay, conditions: read-out: Human H3 Ki

In order of falling Ki:
1. CC(=O)N1C[C@H](Cc2ccc(F)cc2)C[C@H]1C(=O)N1CCCN(C2CCC2)CC1 [Example 181]  2.11 µM
2. CSc1ccc(O[C@@H]2CCN(C(=O)OC(C)(C)C)[C@@H]2C(=O)N2CCCN(C3CCC3)CC2)cc1 [Example 146, (2S,3R)-2-(4-Cyclobutyl-[1,4]diazepane-1-carbonyl)-3-(4-methylsulfanyl-phenoxy)-pyrrolidine-1-carboxylic acid tert-butyl ester]  1.47 µM
3. CC(=O)N1C[C@@H](Oc2cccc(F)c2)C[C@@H]1C(=O)N1CCCNCC1 [Example 156, (2R,4S)-4-[1-Acetyl-4-(3-fluoro-Phenoxy)-pyrrolidine-2-carbonyl]-[1,4]diazepane]  1.16 µM
4. CC(=O)N1C[C@H](Cc2cccc(F)c2)C[C@H]1C(=O)N1CCCN(C2CCC2)CC1 [Example 182]  1.16 µM
5. CC(C)(C)OC(=O)N1CC[C@@H](Oc2ccc(C#N)cc2)[C@H]1C(=O)N1CCCN(C2CCC2)CC1 [Example 145, (2S,3R)-3-(4-Cyano-phenoxy)-2-(4-cyclobutyl-[1,4]diazepane-1-carbonyl)-pyrrolidine-1-carboxylic acid tert-butyl ester]  1.1 µM
6. CC(C)(C)OC(=O)N1CC[C@@H](Oc2ccc(F)cc2)[C@H]1C(=O)N1CCCN(C2CCC2)CC1 [Example 144, (2S,3R)-2-(4-Cyclobutyl-[1,4]diazepane-1-carbonyl)-3-(4-fluoro-phenoxy)-pyrrolidine-1-carboxylic acid tert-butyl ester]  0.957 µM
7. CC(C)(C)OC(=O)N1CC[C@@H](Oc2cccc(F)c2)[C@H]1C(=O)N1CCCN(C2CCC2)CC1 [Example 143, (2S,3R)-2-(4-Cyclobutyl-[1,4]diazepane-1-carbonyl)-3-(3-fluoro-phenoxy)-pyrrolidine-1-carboxylic acid tert-butyl ester]  0.845 µM
8. O=C([C@@H]1C[C@@H](Cc2cccc(F)c2)CN1)N1CCCN(C2CCC2)CC1 [Example 179, (2S,4R)-(4-Cyclobutyl-[1,4]diazepan-1-yl)-[4-(3-fluoro-benzyl)-pyrrolidin-2-yl]-methanone]  0.348 µM
9. O=C([C@@H]1C[C@@H](Cc2ccc(F)cc2)CN1)N1CCCN(C2CCC2)CC1 [Example 178, (2S,4R)-(4-Cyclobutyl-[1,4]diazepan-1-yl)-[4-(4-fluoro-benzyl)-pyrrolidin-2-yl]-methanone]  0.299 µM
10. O=C([C@@H]1C[C@@H](Cc2ccccc2)CN1)N1CCCN(C2CCC2)CC1 [Example 177, (2S,4R)-(4-Benzyl-pyrrolidin-2-yl)-(4-cyclobutyl-[1,4]diazepan-1-yl)-methanone]  0.263 µM
11. CC(C)(C)OC(=O)N1CCC[C@]1(Cc1ccc(F)cc1)C(=O)N1CCCN(C2CCC2)CC1 [Example 165, (2S)-2-(4-Cyclobutyl-[1,4]diazepane-1-carbonyl)-2-(4-fluoro-benzyl)-pyrrolidine-1-carboxylic acid tert-butyl ester]  0.257 µM
12. CC(=O)N1C[C@H](Cc2ccsc2)C[C@H]1C(=O)N1CCCN(C2CCC2)CC1 [Example 183]  0.203 µM
13. CC(C)(C)OC(=O)N1C[C@H](Cc2cccc(F)c2)C[C@H]1C(=O)N1CCCN(C2CCC2)CC1 [Example 175, (2S,4R)-2-(4-Cyclobutyl-[1,4]diazepane-1-carbonyl)-4-(3-fluoro-benzyl)-pyrrolidine-1-carboxylic acid tert-butyl ester]  0.072 µM
14. CC(C)(C)OC(=O)N1CCC[C@]1(Cc1ccc(C(F)(F)F)cc1)C(=O)N1CCCN(C2CCC2)CC1 [Example 166, (2S)-2-(4-Cyclobutyl-[1,4]diazepane-1-carbonyl)-2-(4-trifluoromethyl-benzyl)-pyrrolidine-1-carboxylic acid tert-butyl ester]  0.06 µM
15. CC(C)(C)OC(=O)N1CCC[C@]1(Cc1cccc(F)c1)C(=O)N1CCCN(C2CCC2)CC1 [Example 164, (2S)-2-(4-Cyclobutyl-[1,4]diazepane-1-carbonyl)-2-(3-fluoro-benzyl)-pyrrolidine-1-carboxylic acid tert-butyl ester]  0.053 µM
16. CC(C)(C)OC(=O)N1C[C@H](Cc2ccc(F)cc2)C[C@H]1C(=O)N1CCCN(C2CCC2)CC1 [Example 174, (2S,4R)-2-(4-Cyclobutyl-[1,4]diazepane-1-carbonyl)-4-(4-fluoro-benzyl)pyrrolidine-1-carboxylic acid tert-butyl ester]  0.053 µM
17. CC(C)(C)OC(=O)N1CCC[C@]1(Cc1ccccc1)C(=O)N1CCCN(C2CCC2)CC1 [Example 167, (2S)-2-Benzyl-2-(4-cyclobutyl-[1,4]diazepane-1-carbonyl)-pyrrolidine-1-carboxylic acid tert-butyl ester]  0.051 µM
18. O=C([C@@H]1C[C@@H](Cc2ccsc2)CN1)N1CCCN(C2CCC2)CC1 [Example 180, (2S,4R)-(4-Cyclobutyl-[1,4]diazepan-1-yl)-(4-thiophen-3-ylmethyl-pyrrolidin-2-yl)-methanone]  0.05 µM
19. CC(C)(C)OC(=O)N1C[C@H](Cc2ccccc2)C[C@H]1C(=O)N1CCCN(C2CCC2)CC1 [Example 173, (2S,4R)-4-Benzyl-2-(4-cyclobutyl-[1,4]diazepane-1-carbonyl)-pyrrolidine-1-carboxylic acid tert-butyl ester]  0.039 µM
20. O=C(N1CCCN(C2CCC2)CC1)[C@@]1(Cc2ccc(F)cc2)CCCN1 [Example 169, (2S)-(4-Cyclobutyl-[1,4]diazepan-1-yl)-[2-(4-fluoro-benzyl)-pyrrolidin-2-yl]-methanone]  0.027 µM
21. CC(C)(C)OC(=O)N1C[C@H](Cc2ccsc2)C[C@H]1C(=O)N1CCCN(C2CCC2)CC1 [Example 176, (2S,4R)-2-(4-Cyclobutyl-[1,4]diazepane-1-carbonyl)-4-thiophen-3-ylmethyl-pyrrolidine-1-carboxylic acid tert-butyl ester]  0.02 µM
22. CC(C)(C)OC(=O)N1C[C@@H](OCc2ccc(C#N)cc2)C[C@@H]1C(=O)N1CCCN(C2CCC2)CC1 [Example 149, (2R,4S)-4-(4-Cyano-benzyloxy)-2-(4-cyclobutyl-[1,4]diazepane-1-carbonyl)-pyrrolidine-1-carboxylic acid tert-butyl ester]  0.013 µM
23. CC(C)(C)OC(=O)N1C[C@@H](OCc2cccc(F)c2)C[C@@H]1C(=O)N1CCCN(C2CCC2)CC1 [Example 147, (2R,4S)-2-(4-Cyclobutyl-[1,4]diazepane-1-carbonyl)-4-(3-fluoro-benzyloxy)-pyrrolidine-1-carboxylic acid tert-butyl ester]  0.008 µM
24. CC(C)(C)OC(=O)N1C[C@@H](OCc2ccc(F)cc2)C[C@@H]1C(=O)N1CCCN(C2CCC2)CC1 [Example 148, (2R,4S)-2-(4-Cyclobutyl-[1,4]diazepane-1-carbonyl)-4-(4-fluoro-benzyloxy)-pyrrolidine-1-carboxylic acid tert-butyl ester]  0.006 µM
